Results reported in patent US20220169598A1, “HALOGENATED PHENYLSULFONAMIDE HYDROXAMIC ACID COMPOUNDS, COMPOSITIONS AND USES THEREOF AS SELECTIVE HDAC6 INHIBITORS” (2681603 ONTARIO INC., priority 2019, published 2022).

What was measured:
HDAC6 = target: T1, HDAC6 (Homo sapiens, UniProt Q9UBN7); test: in vitro activity-based HDAC assay; assay type: biochemical; settings: human HDAC isoform panel, Table 1; read-out: IC50 HDAC6
T1 sequence (Q9UBN7 1-1215): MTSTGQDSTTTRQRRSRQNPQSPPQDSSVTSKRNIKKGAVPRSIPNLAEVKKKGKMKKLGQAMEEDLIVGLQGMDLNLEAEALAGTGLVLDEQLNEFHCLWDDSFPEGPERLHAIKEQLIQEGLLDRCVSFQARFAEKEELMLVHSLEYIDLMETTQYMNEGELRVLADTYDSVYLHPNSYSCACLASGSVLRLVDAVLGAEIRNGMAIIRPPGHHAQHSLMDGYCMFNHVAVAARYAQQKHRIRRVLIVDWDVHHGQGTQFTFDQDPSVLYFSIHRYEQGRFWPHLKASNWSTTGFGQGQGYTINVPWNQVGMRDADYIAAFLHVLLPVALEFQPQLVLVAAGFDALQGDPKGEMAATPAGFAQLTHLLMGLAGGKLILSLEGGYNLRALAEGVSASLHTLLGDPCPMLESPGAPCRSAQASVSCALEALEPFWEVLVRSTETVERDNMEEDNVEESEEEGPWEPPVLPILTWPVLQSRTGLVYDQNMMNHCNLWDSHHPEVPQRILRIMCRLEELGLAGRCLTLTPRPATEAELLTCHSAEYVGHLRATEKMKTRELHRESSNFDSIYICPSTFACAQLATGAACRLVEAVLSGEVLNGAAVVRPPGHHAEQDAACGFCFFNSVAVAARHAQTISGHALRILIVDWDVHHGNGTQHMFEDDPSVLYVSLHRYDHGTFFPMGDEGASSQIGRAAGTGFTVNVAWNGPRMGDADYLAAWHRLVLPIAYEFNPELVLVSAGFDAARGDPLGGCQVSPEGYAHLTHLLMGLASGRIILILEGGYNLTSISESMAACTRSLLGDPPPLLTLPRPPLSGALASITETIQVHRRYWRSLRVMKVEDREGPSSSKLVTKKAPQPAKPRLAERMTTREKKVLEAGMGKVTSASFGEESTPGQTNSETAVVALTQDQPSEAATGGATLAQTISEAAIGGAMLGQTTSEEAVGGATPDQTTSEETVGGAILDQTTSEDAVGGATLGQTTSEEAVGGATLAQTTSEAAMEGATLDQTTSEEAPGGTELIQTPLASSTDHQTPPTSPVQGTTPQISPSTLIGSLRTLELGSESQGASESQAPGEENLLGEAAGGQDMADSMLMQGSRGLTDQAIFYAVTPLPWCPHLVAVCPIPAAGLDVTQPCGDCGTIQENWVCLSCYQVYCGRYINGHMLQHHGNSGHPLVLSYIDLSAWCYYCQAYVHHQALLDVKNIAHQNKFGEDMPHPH

HDAC5 = HDAC5 (Homo sapiens, UniProt Q9UQL6); test: in vitro activity-based HDAC assay; assay type: biochemical; settings: human HDAC isoform panel, Table 1
HDAC8 = HDAC8 (Homo sapiens, UniProt Q9BY41); test: in vitro activity-based HDAC assay; assay type: biochemical; settings: human HDAC isoform panel, Table 1
HDAC10 = target: T2, HDAC10 (Homo sapiens, UniProt Q969S8); test: in vitro activity-based HDAC assay; assay type: biochemical; settings: human HDAC isoform panel, Table 1
T2 sequence (Q969S8 1-669): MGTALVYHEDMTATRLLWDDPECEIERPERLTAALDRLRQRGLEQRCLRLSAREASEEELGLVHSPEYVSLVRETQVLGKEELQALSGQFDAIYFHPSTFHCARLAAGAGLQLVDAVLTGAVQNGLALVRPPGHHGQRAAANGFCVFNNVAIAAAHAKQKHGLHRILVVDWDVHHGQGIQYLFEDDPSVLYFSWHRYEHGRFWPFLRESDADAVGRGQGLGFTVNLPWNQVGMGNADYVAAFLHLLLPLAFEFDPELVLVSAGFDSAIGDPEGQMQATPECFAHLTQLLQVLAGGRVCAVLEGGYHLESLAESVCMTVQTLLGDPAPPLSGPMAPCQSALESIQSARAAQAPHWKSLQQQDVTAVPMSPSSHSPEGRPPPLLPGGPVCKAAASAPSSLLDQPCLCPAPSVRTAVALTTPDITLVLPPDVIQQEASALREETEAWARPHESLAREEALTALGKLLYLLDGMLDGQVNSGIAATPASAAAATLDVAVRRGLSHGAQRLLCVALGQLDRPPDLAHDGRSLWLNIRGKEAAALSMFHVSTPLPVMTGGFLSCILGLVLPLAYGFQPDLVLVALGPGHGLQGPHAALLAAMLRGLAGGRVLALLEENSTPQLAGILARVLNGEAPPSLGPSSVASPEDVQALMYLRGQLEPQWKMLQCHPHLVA

HDAC2 = HDAC2 (Homo sapiens, UniProt Q92769); test: in vitro activity-based HDAC assay; assay type: biochemical; settings: human HDAC isoform panel, Table 1
HDAC9 = HDAC9 (Homo sapiens, UniProt Q9UKV0); test: in vitro activity-based HDAC assay; assay type: biochemical; settings: human HDAC isoform panel, Table 1
MV-4-11 = test: Apoptosis induction by FACS (FITC-Annexin V / PI); assay type: cell-based; settings: MV-4-11, increasing concentration of inhibitor
[1] = Kinetic solubility by analytical HPLC; assay type: physicochemical; settings: PBS with 5% (v/v) DMSO, aqueous with cosolvent or surfactant or cyclodextrin, kinetic from dmso stock; PBS + 5% DMSO; initial concentration 300 μM; read-out: Saturation Concentration
Description: The initial concentration of each exemplary compound was 300 μM.

HDAC8, sequence (Q9BY41 whole entry, canonical isoform): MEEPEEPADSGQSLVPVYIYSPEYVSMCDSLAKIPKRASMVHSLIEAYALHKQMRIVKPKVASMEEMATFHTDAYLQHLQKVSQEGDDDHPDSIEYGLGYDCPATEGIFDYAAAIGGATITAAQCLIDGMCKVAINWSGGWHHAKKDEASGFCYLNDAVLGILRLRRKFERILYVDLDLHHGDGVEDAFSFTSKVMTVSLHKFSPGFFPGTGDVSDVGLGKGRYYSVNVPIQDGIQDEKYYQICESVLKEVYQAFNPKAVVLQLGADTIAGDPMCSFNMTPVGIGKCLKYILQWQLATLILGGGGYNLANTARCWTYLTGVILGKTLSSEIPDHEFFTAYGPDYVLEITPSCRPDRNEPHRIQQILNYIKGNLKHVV
HDAC9, sequence (Q9UKV0 whole entry, canonical isoform): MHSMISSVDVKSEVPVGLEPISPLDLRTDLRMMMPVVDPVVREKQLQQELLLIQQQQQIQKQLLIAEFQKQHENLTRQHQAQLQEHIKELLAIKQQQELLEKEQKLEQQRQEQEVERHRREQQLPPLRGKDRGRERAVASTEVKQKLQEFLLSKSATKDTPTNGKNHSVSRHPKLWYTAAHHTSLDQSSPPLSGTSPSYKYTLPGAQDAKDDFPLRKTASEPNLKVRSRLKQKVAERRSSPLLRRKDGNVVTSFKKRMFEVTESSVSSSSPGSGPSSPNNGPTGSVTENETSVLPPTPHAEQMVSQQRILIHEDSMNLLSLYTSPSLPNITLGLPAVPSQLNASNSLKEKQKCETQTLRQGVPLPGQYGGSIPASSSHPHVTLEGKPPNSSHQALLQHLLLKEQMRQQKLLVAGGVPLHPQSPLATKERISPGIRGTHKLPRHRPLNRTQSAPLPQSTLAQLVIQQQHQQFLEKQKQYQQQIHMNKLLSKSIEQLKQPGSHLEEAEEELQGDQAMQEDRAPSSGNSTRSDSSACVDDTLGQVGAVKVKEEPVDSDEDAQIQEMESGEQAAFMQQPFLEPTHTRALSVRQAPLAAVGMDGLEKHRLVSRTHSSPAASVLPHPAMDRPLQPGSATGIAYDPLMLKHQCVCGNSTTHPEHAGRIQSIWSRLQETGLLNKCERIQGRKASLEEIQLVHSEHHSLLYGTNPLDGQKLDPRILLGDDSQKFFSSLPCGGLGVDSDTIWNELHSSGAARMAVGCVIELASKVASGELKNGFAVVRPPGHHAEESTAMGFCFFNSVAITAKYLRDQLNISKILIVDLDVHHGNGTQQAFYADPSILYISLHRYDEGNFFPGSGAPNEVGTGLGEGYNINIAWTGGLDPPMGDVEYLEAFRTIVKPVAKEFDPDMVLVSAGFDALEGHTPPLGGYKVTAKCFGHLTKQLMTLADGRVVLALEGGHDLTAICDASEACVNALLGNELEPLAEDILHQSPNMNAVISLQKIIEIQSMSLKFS
HDAC5, sequence (Q9UQL6 whole entry, canonical isoform): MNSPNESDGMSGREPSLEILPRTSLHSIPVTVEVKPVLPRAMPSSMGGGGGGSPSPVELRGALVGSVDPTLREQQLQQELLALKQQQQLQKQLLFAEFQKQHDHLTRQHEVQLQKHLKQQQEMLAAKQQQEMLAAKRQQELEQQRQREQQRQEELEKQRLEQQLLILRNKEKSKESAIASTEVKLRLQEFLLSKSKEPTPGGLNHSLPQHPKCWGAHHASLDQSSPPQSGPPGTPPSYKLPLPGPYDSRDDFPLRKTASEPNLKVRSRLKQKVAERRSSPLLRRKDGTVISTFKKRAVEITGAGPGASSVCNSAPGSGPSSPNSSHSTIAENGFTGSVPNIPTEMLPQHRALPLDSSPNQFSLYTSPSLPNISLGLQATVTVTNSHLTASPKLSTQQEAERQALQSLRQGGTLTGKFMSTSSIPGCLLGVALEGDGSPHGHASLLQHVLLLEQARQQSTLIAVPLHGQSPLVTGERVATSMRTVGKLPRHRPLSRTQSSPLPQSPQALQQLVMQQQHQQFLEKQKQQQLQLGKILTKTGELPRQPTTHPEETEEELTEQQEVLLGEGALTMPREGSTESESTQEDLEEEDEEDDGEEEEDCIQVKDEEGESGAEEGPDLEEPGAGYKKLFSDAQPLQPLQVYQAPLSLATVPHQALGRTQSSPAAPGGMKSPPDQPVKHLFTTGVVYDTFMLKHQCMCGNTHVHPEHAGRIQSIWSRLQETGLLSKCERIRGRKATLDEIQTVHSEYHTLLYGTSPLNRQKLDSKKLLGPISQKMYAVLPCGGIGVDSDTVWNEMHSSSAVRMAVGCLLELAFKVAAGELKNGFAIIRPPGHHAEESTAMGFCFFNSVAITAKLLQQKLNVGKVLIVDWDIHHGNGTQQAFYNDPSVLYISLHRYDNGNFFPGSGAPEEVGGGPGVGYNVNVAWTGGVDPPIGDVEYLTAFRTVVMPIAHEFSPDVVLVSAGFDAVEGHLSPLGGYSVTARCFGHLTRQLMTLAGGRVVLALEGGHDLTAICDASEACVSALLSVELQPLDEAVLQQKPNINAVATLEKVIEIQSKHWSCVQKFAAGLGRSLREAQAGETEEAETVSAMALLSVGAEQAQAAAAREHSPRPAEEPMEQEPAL
HDAC2, sequence (Q92769 whole entry, canonical isoform): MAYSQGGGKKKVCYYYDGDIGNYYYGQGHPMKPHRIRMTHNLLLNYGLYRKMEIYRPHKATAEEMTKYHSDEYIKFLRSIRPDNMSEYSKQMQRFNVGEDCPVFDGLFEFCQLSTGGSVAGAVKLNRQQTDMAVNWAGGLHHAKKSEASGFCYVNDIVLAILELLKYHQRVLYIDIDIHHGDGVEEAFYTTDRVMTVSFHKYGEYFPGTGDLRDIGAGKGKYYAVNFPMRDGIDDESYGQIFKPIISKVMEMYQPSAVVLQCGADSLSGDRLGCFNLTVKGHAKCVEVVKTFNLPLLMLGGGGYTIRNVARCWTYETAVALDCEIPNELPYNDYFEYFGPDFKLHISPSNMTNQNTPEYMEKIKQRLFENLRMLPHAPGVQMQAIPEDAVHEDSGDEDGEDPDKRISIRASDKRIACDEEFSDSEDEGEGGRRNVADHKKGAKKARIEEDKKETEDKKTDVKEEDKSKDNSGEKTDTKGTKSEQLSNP

Structure (SMILES) | IC50 (HDAC6) [µM] | IC50 (HDAC5) [µM] | IC50 (HDAC8) [µM] | IC50 (HDAC10) [µM] | IC50 (HDAC2) [µM] | IC50 (HDAC9) [µM] | apoptotic-inducting potential (FACS) (MV-4-11) | solubility kinetic [1] [µM]
O=C(NO)c1ccc(CN(Cc2cccnc2)S(=O)(=O)c2cc(F)c(F)c(F)c2F)cc1 [Compound I-18, N-hydroxy-4-((2,3,4,5-tetrafluoro-N-(pyridin-3-ylmethyl)phenylsulfonamido)methyl)benzamide] | 0.002 | > 1 | 0.316 | 0.551 | > 1 | > 1 | larger populations of cells undergoing early apoptosis | 142 ± 2.4
O=C(NO)c1ccc(CN(C2CC2)S(=O)(=O)c2cc(F)c(F)c(F)c2F)cc1 [Compound I-13, 4-((N-cyclopropyl-2,3,4,5-tetrafluorophenylsulfonamido)methyl)-N-hydroxybenzamide] | 0.009 | > 1 | 0.334 | > 1 | > 1 | > 1 | larger populations of cells undergoing early apoptosis | 88.1 ± 1.6
